The test system of the assay is THP-1 viability, CellTiter-Glo luminescence, 72 h. Kind of assay: PubChem AID 2252.
On to `Cn1cnc2cc(NC(=O)c3cccs3)ccc21`, for which the EC50 was below 0.1 µM.

In the case of `CCc1ccc2c(c1)C1(NN=C(c3ccc(C)cc3)S1)C(=O)N2` (stereo not drawn), the EC50 is 9.42 µM.

`COc1cc(CNc2ccc(N3CCN(C(C)=O)CC3)cc2)ccc1OCc1ccccc1`: the EC50 was 6.5 µM.

For the compound `Cc1nn(-c2nc3ccccc3[nH]2)c(N)c1-c1ccccc1`, the EC50 was 28.7 µM.

Turning to `NC1=NC[C@H](CC2CCCCC2)N1CCc1cc(C(F)(F)F)cc(C(F)(F)F)c1`, the EC50 is 6.33 µM.

With `Oc1c(Br)cc(Br)cc1C=Nc1cccc2ncccc12`, the EC50 is 12.9 µM.

Take `Cc1cc([N+](=O)[O-])cc(/C=N/n2c(C)nc3ccccc3c2=O)c1O`: the half-maximal effective concentration (EC50) was 28.2 µM.

As to `NC1=NC[C@H](Cc2ccc(O)cc2)N1CCC12CC3CC(CC(C3)C1)C2`, the EC50 was 13.2 µM.

Turning to `Cc1[nH]c2ccc(OC(F)(F)F)cc2c1CCNCc1ccc(Cl)cc1`, the EC50 was 4.99 µM.

Turning to `O=C(Nc1cccc(NC(=O)c2ccccc2Cl)c1)c1ccc([N+](=O)[O-])o1`, the EC50 is 2.11 µM.

On to `O=C(N/N=C/c1cc(Cl)ccc1O)c1ccncc1`, for which the 50% effective concentration (EC50) is 6.13 µM.

Turning to `Cc1ccc(NC(=O)CS(=O)CC(=O)Nc2ccccc2-c2ccc(C)o2)cc1` (stereo not drawn), the concentration for a half-maximal effect (EC50) is 21.6 µM.

For the compound `Cc1ccc(C)c(NC(=O)CCC(=O)N/N=C/c2cc([N+](=O)[O-])ccc2O)c1`, the EC50 is 17.9 µM.

With `CC(C)(C)c1ccc(OCCNC(=S)Nc2ccccc2)cc1`, the EC50 is 16 µM.

With `COc1ccc(/C=C/c2cc[n+](C(=O)Cc3ccccc3)cc2)cc1`, the EC50 is 3.92 µM.

In the case of `CCCCCNC(=O)c1cn(CC)c2cc(N3CCN(C)CC3)c(F)cc2c1=O`, the EC50 is 19.8 µM.

Consider `CC(C(=O)NC1C=CS(=O)(=O)C1)N1C(=O)/C(=C/c2cccc(Cl)c2)SC1=S` (stereo not drawn), for which the EC50 is 24.5 µM.

As to `Fc1ccc(Nc2nc(NCc3ccco3)c3ccccc3n2)cc1`, the EC50 was 5.9 µM.

For the compound `Cc1cccc(C(=O)NNC(=S)NC(=O)c2cccs2)c1`, the EC50 is 14.6 µM.

With `NC1=NC2(CCCCC2)N=C(Nc2ccc(Br)cc2)N1`, the EC50 is 2.39 µM.

`Cc1oc2c(O)c(O)ccc2c(=O)c1-c1ccccc1`: the EC50 is 24.9 µM.

Take `Cc1ccc(C(OCC(O)CNCc2ccc(F)cc2)c2ccccc2)cc1` (stereo not drawn): the concentration for a half-maximal effect (EC50) was 13 µM.

Take `COc1cccc(CNCCc2c[nH]c3ccccc23)c1OCc1ccccc1`: the concentration for a half-maximal effect (EC50) is 6.18 µM.

For the compound `O=[N+]([O-])c1cc(O)c2ncccc2c1`, the EC50 is 5.78 µM.

In the case of `CCCCCCC[N+](CC)(CC)CCCCc1ccc(Cl)cc1`, the EC50 was 3.22 µM.

Regarding `COc1ccc(CNCC(O)COc2ccc(C(C)(C)c3ccccc3)cc2)cc1` (stereo not drawn), the EC50 was 14.7 µM.

Consider `O=C(N/N=C/c1cc([N+](=O)[O-])ccc1O)C(O)(c1ccccc1)c1ccccc1`, for which the EC50 was 11.8 µM.

`CCN(CC)c1ccc(/C=N/NC(=O)c2ccc3nc[nH]c3c2)c(O)c1`: the EC50 is 0.9 µM.

Turning to `CC(C)NC(=O)CN1CCN(Cc2nc(C(c3ccccc3)c3ccccc3)no2)CC1`, the concentration for a half-maximal effect (EC50) was below 0.1 µM.

As for `NC1=NC[C@H](c2ccccc2)N1CCc1cc(C(F)(F)F)cc(C(F)(F)F)c1`, the 50% effective concentration (EC50) was 3.81 µM.

`OCCN1CCN(Cc2cc(Cl)c3cccnc3c2O)CC1`: the EC50 was 7.5 µM.

For `CC[C@H](C)[C@@H](CN[C@H](C)CNC)NCCC(c1ccccc1)c1ccccc1`, the EC50 is 7.07 µM.

`O=c1[nH]c(=S)ccn1C1OC(CO)C(O)C1O` (stereo not drawn): the EC50 was 16.3 µM.

In the case of `O=Nc1c(O)c2ccccc2c2ccccc12`, the EC50 is 3.08 µM.

As for `N=c1c2c(-c3ccccc3)c(-c3ccccc3)n(Cc3ccco3)c2ncn1CCCn1ccnc1`, the EC50 is 7.71 µM.

For the compound `Cc1c(CCN)ccc2c1[nH]c1ccccc12`, the EC50 was 22.3 µM.

As for `CCOc1cc(CNCCCN2CCOCC2)cc(Br)c1OCC(=O)Nc1cccc(C(F)(F)F)c1`, the EC50 was 8.24 µM.

For `Cc1ccc(OCC(O)Cn2c(=N)n(CCN3CCCCC3)c3ccccc32)cc1` (stereo not drawn), the EC50 is 5.35 µM.

Take `Fc1ccc(CCNCc2ccc(Cl)c(Cl)c2)cc1`: the EC50 was 35.2 µM.

Take `Cn1ncnc2c(=O)n(C)c(=O)nc1-2`: the EC50 is 1.38 µM.

`NC(N)=N/N=C/c1ccc(OCc2ccc(Cl)cc2)cc1`: the EC50 is 5.57 µM.

For the compound `COC(=O)C1=C(C)N(Cc2ccccc2)C(=NCc2cccc(C(F)(F)F)c2)N[C@H]1c1cccc(F)c1`, the EC50 is 5.3 µM.

In the case of `O=C(N/N=C\C=C\c1ccc([N+](=O)[O-])o1)c1cccs1`, the EC50 is 34.8 µM.

Consider `C#CCOCCOCCOCCNc1nc(N2CCN(C(=O)CCCCCCCCCCNC(=O)[C@H](CCCCN)n3cc(C)nn3)CC2)nc(N2CCN(C(=O)CCCCCCCCCCNC(=O)[C@H](CO)n3cc(CCCSC)nn3)CC2)n1`, for which the EC50 was 10.4 µM.

For the compound `CCCCCOc1ccc(CSC2=NCCN2)cc1[N+](=O)[O-]`, the 50% effective concentration (EC50) is 20 µM.

On to `Cc1cc(OCCCCCN2CCCC2)ccc1Cl`, for which the EC50 is 48.7 µM.

For `COC(=O)c1ccc(Cn2c(O)c(N=NC(N)=S)c3ccccc32)o1`, the EC50 is 12.7 µM.

As to `Cc1[nH]cnc1C(=O)N/N=C/c1ccc([N+](=O)[O-])s1`, the EC50 was 13.3 µM.

As for `O=C(C[n+]1cnn(CC(=O)c2ccc(Cl)cc2Cl)c1)c1ccc([N+](=O)[O-])cc1`, the EC50 was 26.4 µM.

With `COc1ccc2nc(C)cc(Nc3ccc(N4CCOCC4)cc3)c2c1`, the EC50 was 45.9 µM.

With `COc1cccc(Nc2nc(NCC3CCCO3)c3ccccc3n2)c1` (stereo not drawn), the EC50 is 2.27 µM.

Turning to `COc1cccc(CNC23CC4CC(CC(C4)C2)C3)c1OCc1ccccc1`, the EC50 is 22.3 µM.

Consider `Cc1cccc2c1Sc1ccc(Cl)cc1CC2N1CCNCC1` (stereo not drawn), for which the EC50 is 6.59 µM.

In the case of `CN1CCN(c2ccc(NC(=O)CSc3ccccc3)cc2F)CC1`, the EC50 is below 0.1 µM.

`O=C(Nc1nnc(C(F)(F)F)s1)c1ccc(Br)s1`: the EC50 is 22.2 µM.

Turning to `O=C(/C=C/c1ccccc1)NNC(=O)c1ccco1`, the EC50 is below 0.1 µM.

`O=[N+]([O-])c1cc(CN2CCN(c3cccc(C(F)(F)F)c3)CC2)c2cccnc2c1O`: the EC50 was 1.74 µM.

On to `Cc1oc(/N=C/c2ccc(O)cc2O)c(C#N)c1C`, for which the EC50 was below 0.1 µM.

As to `CNCCCC1c2ccccc2C=Cc2ccccc21`, the EC50 was 24.5 µM.

`CC(C)N1CCc2c(sc(NC(=O)c3ccc(S(=O)(=O)N4CCc5ccccc54)cc3)c2C(N)=O)C1`: the EC50 is 8.45 µM.

In the case of `CN1CCN(CCCN2c3ccccc3Sc3ccc(C(F)(F)F)cc32)CC1`, the EC50 was 10.3 µM.

Consider `CC(C)CCC(CCNCc1ccccn1)c1ccc(Cl)cc1` (stereo not drawn), for which the EC50 is 16.2 µM.

For `CC(=O)c1c(C)nc(-c2cccc([N+](=O)[O-])c2)n1O`, the EC50 was below 0.1 µM.

In the case of `CCOC(=O)CNC(=O)Cn1c(C)cc2ccccc2c1=O`, the EC50 is 40.9 µM.

As to `Nc1nc(Nc2cccc(F)c2)nc2ccccc12`, the EC50 was 8.85 µM.

For `O=C(NC(=S)NNC(=O)c1cccs1)c1ccc(Br)o1`, the EC50 was 27.5 µM.

As to `O=C(/C=C/c1ccco1)NC(=S)Nc1cccc(-c2nc3ccccc3o2)c1`, the EC50 was below 0.1 µM.

With `COc1cccc(/C=N/NC(=O)CNC(=O)CCc2ccccc2)c1O`, the EC50 is 21.7 µM.

As to `CN(C)c1ccc(Nc2nc(N)c3ccccc3n2)cc1`, the EC50 was 6 µM.

In the case of `COc1ccc(Nc2c3c(nc4ccccc24)CCC3)cc1`, the EC50 is 3.42 µM.

For `CCCCNCCCOc1cccc(Cl)c1Cl`, the EC50 is 28.2 µM.

`Fc1ccc(Nc2nnc(C(F)(F)F)s2)cc1Cl`: the EC50 was 18.5 µM.

Regarding `Nc1nc(F)nc2c1ncn2[C@@H]1O[C@H](CO)[C@@H](O)[C@H]1O`, the EC50 is 0.35 µM.

Turning to `Fc1ccc(Nc2ccnc(Nc3ccc(F)cc3)n2)cc1`, the EC50 is 11.7 µM.

Consider `COc1ccccc1Nc1nc(NCC2CCCO2)c2ccccc2n1` (stereo not drawn), for which the EC50 was 14.1 µM.

As to `Cc1ccc(C)c(N/C(N)=N/c2nc(C)cc(C)n2)c1`, the EC50 is 27 µM.

Consider `COc1cc(CNCCO)cc(Cl)c1OCc1ccc(Cl)cc1Cl`, for which the EC50 was 10.8 µM.

Regarding `OC(CN1CCCCC1)Cn1c2ccccc2c2cc(Br)ccc21` (stereo not drawn), the EC50 was 17.5 µM.

With `Fc1ccc(Nc2c3c(nc4ccccc24)CCC3)cc1`, the EC50 is 6.33 µM.

Consider `CCN(CC)CCOC(=O)c1ccc(N/C=C(/C#N)c2nc(-c3ccc(OC)c(OC)c3)cs2)cc1`, for which the EC50 was 13.5 µM.

In the case of `O=C(CC(=O)c1ccccc1O)c1cccc(F)c1`, the EC50 was 26.2 µM.

Turning to `Cc1cc(C2CCCCC2)n(O)c(=O)c1`, the EC50 is 0.63 µM.

For the compound `O=[N+]([O-])c1cc(Cl)c2cccnc2c1O`, the EC50 was 28.7 µM.

Consider `COc1ccc2[nH]cc(C(=O)CCl)c2c1`, for which the EC50 is 7.78 µM.

Take `CN1CCN(Cc2cc(COCc3ccccc3)c3cccnc3c2O)CC1`: the EC50 is 2.82 µM.

Consider `Oc1cccc2ccc(Nc3ccccn3)nc12`, for which the EC50 was 1.75 µM.

`NCCCC[C@H]1CN=C(N)N1CCC12CC3CC(CC(C3)C1)C2`: the EC50 is 49.4 µM.

As to `CCC(/C=C1\Sc2ccc(OC)cc2N1CCO)=C\c1sc2ccc(OC)cc2[n+]1CCO`, the EC50 was 8.14 µM.

Consider `Cc1ccccc1C(=O)N/N=C/c1ccc([N+](=O)[O-])s1`, for which the EC50 was 16.8 µM.

For `CCCCCCOC(=O)C[N+](C)(C)CCOC1CC2CCC1(C)C2(C)C` (stereo not drawn), the EC50 was 2.08 µM.

Regarding `CN1/C(=C\C=C\C2=[N+](C)c3ccc4ccccc4c3C2(C)C)C(C)(C)c2ccccc21`, the EC50 is 0.2 µM.

For the compound `CCN1CCN(CCCNC(=O)c2ccc(/C=C3/Sc4ccccc4N(Cc4ccccc4F)C3=O)cc2)CC1`, the EC50 is 11.2 µM.

`CCCCOc1ccc(Br)cc1CSC(=N)N`: the EC50 was 5.93 µM.

As for `O=c1ccc2cc3c([nH]c4ccc(Br)cc43)oc-2c1O`, the EC50 is 18.9 µM.

As for `COc1cc2c(cc1OC)[C@H](Cc1ccc(O)cc1)NCC2`, the EC50 is 23.4 µM.

For `O=C(Nc1ccc([N+](=O)[O-])cc1Cl)c1cc(Cl)ccc1O`, the EC50 is 1.93 µM.

On to `O=C(Nc1ccccc1)Nc1cccc(Cl)c1`, for which the EC50 is 43.7 µM.

For `CCCCOc1ccc(NC2=NC3(CCCCC3)N=C(N)N2)cc1`, the EC50 is 7.18 µM.

`Clc1cc(Br)ccc1OCCCNCc1ccccc1`: the EC50 was 14.7 µM.

Take `CCOC(=O)c1c(-c2ccccc2)oc2ccc(OCC(O)CNCCN(C)C)cc12` (stereo not drawn): the EC50 is 5.89 µM.

On to `c1ccc2c(c1)CCN(c1nc3ccccc3n3cnnc13)C2`, for which the EC50 is 24.8 µM.

`NC(N)=N/N=C/c1ccc(OCc2ccccc2Cl)cc1`: the EC50 is 3.15 µM.

In the case of `Cc1ccc(C(=O)N/N=C\c2ccc([N+](=O)[O-])s2)cn1`, the EC50 was 13.2 µM.

The values are drawn from PubChem BioAssay AID2252 (Southern Research Specialized Biocontainment Screening …, 2010).
